From US20040127403A1, “Methods for treating and preventing Gram-positive bacteremias” (priority 2002, published 2004)
In brackets after ≈: the same amount, converted by molar mass. Like-named read-outs stand apart in the source and are kept apart here.

Experiments:
Test in all cases: MIC, NCCLS broth microdilution
Type in all cases: cell-based
S. epidermidis ATCC12228 = conditions: Staphylococcus epidermidis, ATCC12228, S. epidermidis ATCC12228, read-out: MIC
Outline: (§1)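 To stop ramoplanin adsorbing to plastic, test media contained 0.02% BSA. MICs were then determined by NCCLS broth microdilution in two media, cation-adjusted Mueller-Hinton broth and trypticase soy broth.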

S. aureus ATCC27659 MSSA = conditions: Staphylococcus aureus, read-out: MIC
Outline: as §1

S. aureus ATCC27660 MSSA = conditions: Staphylococcus aureus, read-out: MIC
Outline: as §1

S. aureus ATCC35556 MRSA = conditions: Staphylococcus aureus, read-out: MIC
Outline: as §1

E. faecalis ATCC29212 = test system: E. faecalis ATCC29212
Outline: as §1

S. epidermidis ATCC35983 = conditions: Staphylococcus epidermidis, ATCC35983, S. epidermidis ATCC35983, read-out: MIC
Outline: as §1

E. faecalis ATCC51299 = conditions: Enterococcus faecalis, ATCC51299, E. faecalis ATCC51299, read-out: MIC
Outline: as §1

E. faecium A4192 Syn-R = conditions: Enterococcus faecium, A4192SYNR, read-out: MIC
Outline: as §1

E. faecium A5959 Line-R = conditions: Enterococcus faecium, A5959LINER
Outline: as §1

E. gallinarum UA604 = conditions: Enterococcus gallinarum, GALLINARUM, read-out: MIC
Outline: as §1

E. faecium UA210 = conditions: Enterococcus faecium, UA210, E. faecium UA210, read-out: MIC
Outline: as §1

E. faecium A6350 Line-R = conditions: Enterococcus faecium, A6350LINER, read-out: MIC
Outline: as §1

S. aureus ATCC43300 MRSA = conditions: Staphylococcus aureus, ATCC 43300 / MRSA / VISA, S. aureus ATCC43300 MRSA/VISA, read-out: MIC
Outline: as §1

E. faecium A6349 Line-R = conditions: Enterococcus faecium, A6349LINER, read-out: MIC
Outline: as §1

E. faecium UA392 = conditions: Enterococcus faecium, UA392, E. faecium UA392, read-out: MIC
Outline: as §1

E. faecium A2735 Syn-R = conditions: Enterococcus faecium, A2735SYNR, read-out: MIC
Outline: as §1

S. aureus ATCC19636 MSSA = conditions: Staphylococcus aureus, read-out: MIC
Outline: as §1

S. epidermidis ATCC14990 = conditions: Staphylococcus epidermidis, ATCC14990, S. epidermidis ATCC14990, read-out: MIC
Outline: as §1

E. faecalis A7789 Line-R = conditions: Enterococcus faecalis, A7789LINER
Outline: as §1

E. faecium A-5960 Line-R = conditions: Enterococcus faecium, A5960LINER
Outline: as §1

E. faecium ATCC700221 = conditions: Enterococcus faecium, ATCC700221, E. faecium ATCC700221, read-out: MIC
Outline: as §1

S. epidermidis ATCC18972 = conditions: Staphylococcus epidermidis, ATCC18972, S. epidermidis ATCC18972, read-out: MIC
S. epidermidis ATCC35984 = conditions: Staphylococcus epidermidis, ATCC35984, S. epidermidis ATCC35984, read-out: MIC

`COc1cccc(OC)c1C(=O)N[C@@H]1C(=O)N2[C@@H]1SC(C)(C)[C@@H]2C(=O)O` [Meth., methicillin] showed an MIC (S. epidermidis ATCC12228; Table 6, 1st) of 1 µg/mL (≈ 2.63 µM), an MIC (S. epidermidis ATCC12228; Table 6, 2nd) of 2 µg/mL (≈ 5.26 µM) and an MIC (S. aureus ATCC27659 MSSA; Table 6, 1st) of 2 µg/mL (≈ 5.26 µM). For the same compound, the MIC (S. aureus ATCC27659 MSSA; Table 6, 2nd) was 2 µg/mL (≈ 5.26 µM), the MIC (S. aureus ATCC27660 MSSA; Table 6, 1st) was 2 µg/mL (≈ 5.26 µM) and the MIC (S. aureus ATCC27660 MSSA; Table 6, 2nd) was 4 µg/mL (≈ 10.5 µM). For the same compound, the MIC (S. aureus ATCC35556 MRSA; Table 6, 1st) was 1 µg/mL (≈ 2.63 µM), the MIC (S. aureus ATCC35556 MRSA; Table 6, 2nd) was 1 µg/mL (≈ 2.63 µM) and the MIC (E. faecalis ATCC29212; E. faecalis ATCC29212, Table 6, 1st) was 16 µg/mL (≈ 42.1 µM). For the same compound, the MIC (E. faecalis ATCC29212; Enterococcus faecalis, ATCC29212, E. faecalis ATCC29212, Table 6, 1st, read-out: MIC) was > 16 µg/mL, the MIC (E. faecalis ATCC29212; Enterococcus faecalis, ATCC29212, E. faecalis ATCC29212, Table 6, 2nd, read-out: MIC) was 32 µg/mL (≈ 84.1 µM) and the MIC (S. epidermidis ATCC35983; Table 6, 1st) was > 16 µg/mL. For the same compound, the MIC (S. epidermidis ATCC35983; Table 6, 2nd) was 64 µg/mL (≈ 168 µM), the MIC (E. faecalis ATCC51299; Table 6, 1st) was > 16 µg/mL and the MIC (E. faecalis ATCC51299; Table 6, 2nd) was 32 µg/mL (≈ 84.1 µM). The MIC (E. faecium A4192 Syn-R; Table 6, 1st) was > 16 µg/mL, the MIC (E. faecium A4192 Syn-R; Table 6, 2nd) was > 64 µg/mL and the MIC (E. faecium A5959 Line-R; Table 6, 1st) was > 16 µg/mL. For the same compound, the MIC (E. faecium A5959 Line-R; Table 6, 2nd) was > 64 µg/mL, the MIC (E. gallinarum UA604; Table 6, 1st) was > 16 µg/mL and the MIC (E. gallinarum UA604; Table 6, 2nd) was > 64 µg/mL. For the same compound, the MIC (E. faecium UA210; Table 6, 1st) was > 16 µg/mL, the MIC (E. faecium UA210; Table 6, 2nd) was > 64 µg/mL and the MIC (E. faecium A6350 Line-R; Table 6, 1st) was > 16 µg/mL. For the same compound, the MIC (E. faecium A6350 Line-R; Table 6, 2nd) was 64 µg/mL (≈ 168 µM), the MIC (S. aureus ATCC43300 MRSA; Table 6, 1st) was 8 µg/mL (≈ 21 µM) and the MIC (S. aureus ATCC43300 MRSA; Table 6, 2nd) was 8 µg/mL (≈ 21 µM). For the same compound, the MIC (E. faecium A6349 Line-R; Table 6, 1st) was > 16 µg/mL, the MIC (E. faecium A6349 Line-R; Table 6, 2nd) was > 64 µg/mL and the MIC (E. faecium UA392; Table 6, 1st) was > 16 µg/mL. The MIC (E. faecium UA392; Table 6, 2nd) was > 64 µg/mL, the MIC (E. faecium A2735 Syn-R; Table 6, 1st) was > 16 µg/mL and the MIC (E. faecium A2735 Syn-R; Table 6, 2nd) was > 64 µg/mL. The MIC (S. aureus ATCC19636 MSSA; Table 6, 1st) was 1 µg/mL (≈ 2.63 µM), the MIC (S. aureus ATCC19636 MSSA; Table 6, 2nd) was 2 µg/mL (≈ 5.26 µM) and the MIC (S. epidermidis ATCC14990; Table 6, 1st) was 1 µg/mL (≈ 2.63 µM). The MIC (S. epidermidis ATCC14990; Table 6, 2nd) was 1 µg/mL (≈ 2.63 µM), the MIC (E. faecalis A7789 Line-R; Table 6, 1st) was > 16 µg/mL and the MIC (E. faecalis A7789 Line-R; Table 6, 2nd) was 32 µg/mL (≈ 84.1 µM). For the same compound, the MIC (E. faecium A-5960 Line-R; Table 6, 1st) was > 16 µg/mL, the MIC (E. faecium A-5960 Line-R; Table 6, 2nd) was > 64 µg/mL and the MIC (E. faecium ATCC700221; Table 6, 1st) was > 16 µg/mL. The MIC (E. faecium ATCC700221; Table 6, 2nd) was > 64 µg/mL, the MIC (S. epidermidis ATCC18972; Table 6, 1st) was > 16 µg/mL and the MIC (S. epidermidis ATCC18972; Table 6, 2nd) was 64 µg/mL (≈ 168 µM). The MIC (S. epidermidis ATCC35984; Table 6, 1st) was > 16 µg/mL and the MIC (S. epidermidis ATCC35984; Table 6, 2nd) was > 64 µg/mL.
